What was measured:
Type in all cases: functional
LNCaP [1] = test: Induction of apoptosis in human LNCaP cells assessed as early apoptotic cells level at 1 micromol/L incubated for 24 hrs by Annexin V/PI staining staining based flow cytometry (reference value: 2.09%); conditions: dose 1 µmol/L, at 1 µM
LNCaP [2] = test: Induction of apoptosis in human LNCaP cells assessed as late apoptotic cells level at 1 micromol/L incubated for 24 hrs by Annexin V/PI staining staining based flow cytometry (reference value: 0.940%); conditions: dose 1 µmol/L, at 1 µM
LNCaP [3] = test: Induction of apoptosis in human LNCaP cells assessed as late apoptotic cells level at 10 micromol/L incubated for 24 hrs by Annexin V/PI staining staining based flow cytometry (reference value: 0.940%); conditions: dose 10 µmol/L, at 10 µM
LNCaP [4] = test: Induction of apoptosis in human LNCaP cells assessed as late cells level at 2 micromol/L incubated for 24 hrs by Annexin V/PI staining staining based flow cytometry (reference value: 0.940%); conditions: dose 2 µmol/L, at 2 µM

Compound CC1(C)C(=O)N(c2ccc(C#N)c(C(F)(F)F)c2)C(=S)N1CCCCCn1cc(COCCOCCOC(=O)CC23CC4CC(CC(C4)C2)C3)nn1 has an Activity (LNCaP [1]) of 1.56%, an Activity (LNCaP [2]) of 1.59% and an Activity (LNCaP [3]) of 6.6%. For the same compound, the Activity (LNCaP [4]) was 1.59%.
